Drawing on US20260274892A1, “MACROCYCLIC BROAD SPECTRUM ANTIBIOTICS” (RQx Pharmaceuticals, Inc., priority 2017, published 2026), this text covers MIC for 13 compounds.

The test system of assay [1] is Methicillin Resistant Staphylococcus aureus strain USA 200. Nature of the assay: Minimum inhibitory concentration (MIC), CLSI broth micro-dilution, S. aureus. It counts as cell-based. Conditions: Staphylococcus aureus, MRSA / USA200; Table 6; MRSA USA 200; cation adjusted Mueller Hinton Broth + 0.002% Tween-80; 35° C., 22 hours. The gist of the method: (§1)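 Antibacterial potency is measured as MIC by the CLSI broth dilution method. Bacteria at OD600 0.0005 in Tween-80-supplemented cation-adjusted Mueller Hinton broth face ten twofold compound dilutions for 22 h at 35° C.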

The test system of assay [2] is Escherichia coli ATCC 25922. Nature of the assay: Minimum inhibitory concentration (MIC), CLSI broth micro-dilution, E. coli. It counts as cell-based. Particulars: Escherichia coli, ATCC25922, 22 h, Table 6, cation adjusted Mueller Hinton Broth + 0.002% Tween-80, 35° C. The gist of the method: as §1

Each structure is given as a SMILES string.

Regarding `C[C@@H]1NC(=O)[C@@H](N(C)C(=O)[C@H](CCN)NC(=O)c2ccc(-c3ccc(C(C)(C)C)cc3)nc2N)c2ccc(OCCN)c(c2)-c2cc(ccc2OCCN)C[C@@H](C(=O)NCC#N)NC1=O` (racemic) [Compound 412, rac-(8S,11S,14S)-3,18-bis(2-aminoethoxy)-N-(cyanomethyl)-11-methyl-14-[methyl-[rac-(2S)-4-amino-2-[[2-amino-6-(4-tert-butylphenyl)pyridine-3-carbonyl]amino]butanoyl]amino]-10,13-dioxo-9,12-diazatricyclo[13.3.1.12,6]icosa-1(18),2(20),3,5,15(19),16-hexaene-8-carboxamide], the minimal inhibitory concentration (MIC) in assay [1] stood at 0.023 µM; in assay [2] it was 0.5 µM.
Turning to `Cc1nc(-c2ccc(C(C)(C)C)cc2)cc(N)c1C(=O)N[C@@H](CCN)C(=O)N(C)[C@@H]1C(=O)N[C@@H](C)C(=O)N[C@H](C(=O)NCC#N)Cc2ccc(OCCN)c(c2)-c2cc1ccc2OCCN` (racemic) [Compound 413, rac-(8S,11S,14S)-3,18-bis(2-aminoethoxy)-N-(cyanomethyl)-11-methyl-14-[methyl-[rac-(2S)-4-amino-2-[[4-amino-6-(4-tert-butylphenyl)-2-methyl-pyridine-3-carbonyl]amino]butanoyl]amino]-10,13-dioxo-9,12-diazatricyclo[13.3.1.12,6]icosa-1(18),2(20),3,5,15(19),16-hexaene-8-carboxamide], the MIC turned out to be 0.016 µM in assay [1] and 0.13 µM in assay [2].
As for `Cc1cc(-c2ccc(C(C)(C)C)cc2)nc(N)c1C(=O)N[C@@H](CCN)C(=O)N(C)[C@@H]1C(=O)N[C@@H](C)C(=O)N[C@H](C(=O)NCC#N)Cc2ccc(OCCN)c(c2)-c2cc1ccc2OCCN` (racemic) [Compound 414, rac-(8S,11S,14S)-3,18-bis(2-aminoethoxy)-N-(cyanomethyl)-11-methyl-14-[methyl-[rac-(2S)-4-amino-2-[[2-amino-6-(4-tert-butylphenyl)-4-methyl-pyridine-3-carbonyl]amino]butanoyl]amino]-10,13-dioxo-9,12-diazatricyclo[13.3.1.12,6]icosa-1(18),2(20),3,5,15(19),16-hexaene-8-carboxamide], the results for the minimal inhibitory concentration (MIC) in assay [1] and in assay [2] were 0.016 µM and 0.25 µM, respectively.
As for `C[C@@H]1NC(=O)[C@@H](N(C)C(=O)[C@H](CCN)NC(=O)c2cc(N)c(-c3ccc(C(C)(C)C)cc3)nc2N)c2ccc(OCCN)c(c2)-c2cc(ccc2OCCN)C[C@@H](C(=O)NCC#N)NC1=O` (racemic) [Compound 416, rac-(8S,11S,14S)-3,18-bis(2-aminoethoxy)-N-(cyanomethyl)-11-methyl-14-[methyl-[rac-(2S)-4-amino-2-[[2,5-diamino-6-(4-tert-butylphenyl)pyridine-3-carbonyl]amino]butanoyl]amino]-10,13-dioxo-9,12-diazatricyclo[13.3.1.12,6]icosa-1(18),2(20),3,5,15(19),16-hexaene-8-carboxamide], the minimum inhibitory concentration (MIC) worked out at 0.094 µM in assay [1] and 3 µM in assay [2].
For the compound `CCc1nc(-c2ccc(CC(C)C)cc2)ncc1C(=O)N[C@@H](CCN)C(=O)N(C)[C@@H]1C(=O)N[C@@H](C)C(=O)N[C@H](C(=O)NCC#N)Cc2ccc(OCCN)c(c2)-c2cc1ccc2OCCN` (racemic) [Compound 417, rac-(8S,11S,14S)-3,18-bis(2-aminoethoxy)-N-(cyanomethyl)-11-methyl-14-[methyl-[rac-(2S)-4-amino-2-[[4-ethyl-2-(4-isobutylphenyl)pyrimidine-5-carbonyl]amino]butanoyl]amino]-10,13-dioxo-9,12-diazatricyclo[13.3.1.12,6]icosa-1(18),2(20),3,5,15(19),16-hexaene-8-carboxamide], the minimal inhibitory concentration (MIC) came to 0.0062 µM in assay [1] and 0.13 µM in assay [2].
As for `C[C@@H]1NC(=O)[C@@H](N(C)C(=O)[C@H](CCN)NC(=O)c2cnc(-c3ccc(C(C)(C)C)cc3)nc2O)c2ccc(OCCN)c(c2)-c2cc(ccc2OCCN)C[C@@H](C(=O)NCC#N)NC1=O` (racemic) [Compound 419, rac-(8S,11S,14S)-3,18-bis(2-aminoethoxy)-N-(cyanomethyl)-11-methyl-14-[methyl-[rac-(2S)-4-amino-2-[[2-(4-tert-butylphenyl)-4-hydroxy-pyrimidine-5-carbonyl]amino]butanoyl]amino]-10,13-dioxo-9,12-diazatricyclo[13.3.1.12,6]icosa-1(18),2(20),3,5,15(19),16-hexaene-8-carboxamide], the MIC in assay [1] came out at 0.063 µM; in assay [2] it was 8 µM.
As to `Cc1nc(-c2ccc(C(C)(C)C)cc2)nc(Cl)c1C(=O)N[C@@H](CCN)C(=O)N(C)[C@@H]1C(=O)N[C@@H](C)C(=O)N[C@H](C(=O)NCC#N)Cc2ccc(OCCN)c(c2)-c2cc1ccc2OCCN` (racemic) [Compound 421, rac-(8S,11S,14S)-3,18-bis(2-aminoethoxy)-N-(cyanomethyl)-11-methyl-14-[methyl-[rac-(2S)-4-amino-2-[[2-(4-tert-butylphenyl)-4-chloro-6-methyl-pyrimidine-5-carbonyl]amino]butanoyl]amino]-10,13-dioxo-9,12-diazatricyclo[13.3.1.12,6]icosa-1(18),2(20),3,5,15(19),16-hexaene-8-carboxamide], the MIC in assay [1] is 0.031 µM; in assay [2] it was 0.19 µM.
With `COc1nc(-c2ccc(C(C)(C)C)cc2)nc(C)c1C(=O)N[C@@H](CCN)C(=O)N(C)[C@@H]1C(=O)N[C@@H](C)C(=O)N[C@H](C(=O)NCC#N)Cc2ccc(OCCN)c(c2)-c2cc1ccc2OCCN` (racemic) [Compound 422, rac-(8S,11S,14S)-3,18-bis(2-aminoethoxy)-N-(cyanomethyl)-11-methyl-14-[methyl-[rac-(2S)-4-amino-2-[[2-(4-tert-butylphenyl)-4-methoxy-6-methyl-pyrimidine-5-carbonyl]amino]butanoyl]amino]-10,13-dioxo-9,12-diazatricyclo[13.3.1.12,6]icosa-1(18),2(20),3,5,15(19),16-hexaene-8-carboxamide], the minimal inhibitory concentration (MIC) in assay [1] came out at 0.031 µM; in assay [2], 0.38 µM.
The matching figures for `Cc1nc(-c2ccc(C(C)(C)C)cc2)nc(O)c1C(=O)N[C@@H](CCN)C(=O)N(C)[C@@H]1C(=O)N[C@@H](C)C(=O)N[C@H](C(=O)NCC#N)Cc2ccc(OCCN)c(c2)-c2cc1ccc2OCCN` (racemic) [Compound 423, rac-(8S,11S,14S)-3,18-bis(2-aminoethoxy)-N-(cyanomethyl)-11-methyl-14-[methyl-[rac-(2S)-4-amino-2-[[2-(4-tert-butylphenyl)-4-hydroxy-6-methyl-pyrimidine-5-carbonyl]amino]butanoyl]amino]-10,13-dioxo-9,12-diazatricyclo[13.3.1.12,6]icosa-1(18),2(20),3,5,15(19),16-hexaene-8-carboxamide]: 0.13 µM and 2 µM.
Consider `Cc1nc(-c2ccc(C(C)(C)C)cc2)nc(N(C)C)c1C(=O)N[C@@H](CCN)C(=O)N(C)[C@@H]1C(=O)N[C@@H](C)C(=O)N[C@H](C(=O)NCC#N)Cc2ccc(OCCN)c(c2)-c2cc1ccc2OCCN` (racemic) [Compound 424, rac-(8S,11S,14S)-3,18-bis(2-aminoethoxy)-N-(cyanomethyl)-11-methyl-14-[methyl-[rac-(2S)-4-amino-2-[[2-(4-tert-butylphenyl)-4-(dimethylamino)-6-methyl-pyrimidine-5-carbonyl]amino]butanoyl]amino]-10,13-dioxo-9,12-diazatricyclo[13.3.1.12,6]icosa-1(18),2(20),3,5,15(19),16-hexaene-8-carboxamide], for which the MIC worked out at 0.023 µM in assay [1] and 0.19 µM in assay [2].
The matching figures for `CNc1nc(-c2ccc(C(C)(C)C)cc2)nc(C)c1C(=O)N[C@@H](CCN)C(=O)N(C)[C@@H]1C(=O)N[C@@H](C)C(=O)N[C@H](C(=O)NCC#N)Cc2ccc(OCCN)c(c2)-c2cc1ccc2OCCN` (racemic) [Compound 425, rac-(8S,11S,14S)-3,18-bis(2-aminoethoxy)-N-(cyanomethyl)-11-methyl-14-[methyl-[rac-(2S)-4-amino-2-[[2-(4-tert-butylphenyl)-4-methyl-6-(methylamino)pyrimidine-5-carbonyl]amino]butanoyl]amino]-10,13-dioxo-9,12-diazatricyclo[13.3.1.12,6]icosa-1(18),2(20),3,5,15(19),16-hexaene-8-carboxamide]: 0.016 µM and 0.19 µM.
In the case of `Cc1nc(-c2ccc(C(C)(C)C)cc2)nc(N)c1C(=O)N[C@@H](CCN)C(=O)N(C)[C@@H]1C(=O)N[C@@H](C)C(=O)N[C@H](C(=O)NCC#N)Cc2ccc(OCCN)c(c2)-c2cc1ccc2OCCN` (racemic) [Compound 426, rac-(8S,11S,14S)-3,18-bis(2-aminoethoxy)-N-(cyanomethyl)-11-methyl-14-[methyl-[rac-(2S)-4-amino-2-[[4-amino-2-(4-tert-butylphenyl)-6-methyl-pyrimidine-5-carbonyl]amino]butanoyl]amino]-10,13-dioxo-9,12-diazatricyclo[13.3.1.12,6]icosa-1(18),2(20),3,5,15(19),16-hexaene-8-carboxamide], the values for the MIC in assay [1] and in assay [2] were 0.023 µM and 0.12 µM, respectively.
With `C[C@@H]1NC(=O)[C@@H](N(C)C(=O)[C@H](CCN)NC(=O)c2c(N)nc(-c3ccc(C(C)(C)C)cc3)nc2N)c2ccc(OCCN)c(c2)-c2cc(ccc2OCCN)C[C@@H](C(=O)NCC#N)NC1=O` (racemic) [Compound 429, rac-(8S,11S,14S)-3,18-bis(2-aminoethoxy)-N-(cyanomethyl)-11-methyl-14-[methyl-[rac-(2S)-4-amino-2-[[4,6-diamino-2-(4-tert-butylphenyl)pyrimidine-5-carbonyl]amino]butanoyl]amino]-10,13-dioxo-9,12-diazatricyclo[13.3.1.12,6]icosa-1(18),2(20),3,5,15(19),16-hexaene-8-carboxamide], the MIC in assay [1] was found to be 0.023 µM; in assay [2], 1 µM.
